Measurements taken from patent publication US20250188067A1, “SALT AND CRYSTAL FORM OF DIPEPTIDYL PEPTIDASE INHIBITOR COMPOUND” (HAISCO PHARMACEUTICALS PTE. LTD., priority 2022, published 2025).
≈ marks a conversion by molar mass, not a printed value.

Legend:
[1] = target: Recombinant human DPP1 enzyme (Homo sapiens (Human), UniProt P53634); test: Activity detection test of DPP1 enzyme in vitro
[2] = The pharmacokinetic test of rat; type: in vivo; settings: male SD rats, Gavage (3 mg/kg)
Experimental: • 1.1 Test animals: male SD rats, about 220 g, 6 to 8 weeks old, 6 rats/compound. Purchased from Chengdu Senwell Experimental Animals Co., Ltd. • 1.2 Test design: On the day of the test, 6 SD rats were randomly divided into groups according to body weight. Water and no food for 12 to 14 hours one day before administration, and food 4 hours after administration.
Vehicle for intravenous administration: 5% DMA+5% Solutol+90% Saline; vehicle for gavage administration: 0.5% MC; the reference compound INS1007, which is Compound 2 in patent WO2015110826A1, was prepared according to the method of the patent.
Before and after administration, 0.1 mL of blood was taken from the orbit under isoflurane anesthesia. It was placed in an EDTAK2 centrifuge tube, and centrifuged at 5000 rpm and 4° C. for 10 min, and the plasma was collected. Time points of blood collection in the intravenous groups: 0, 5, 15, 30 min, 1, 2, 4, 6, 8, 24 h; time points of blood collection in the gavage groups: 0, 5, 15, 30 min, 1, 2, 4, 6, 8, 24 h. Before analysis and detection, all samples were stored at −80° C.

[3] = Dynamic solubility; type: physicochemical; settings: thermodynamic from solid, 37° C.
Experimental: A sample of about 0.9 mL was taken, centrifuged and filtered, tested the solid by XRPD, and tested the liquid by HPLC concentration and pH.

[4] = Hygroscopicity by Dynamic Vapour Sorption (DVS); type: physicochemical; settings: 25° C./80% RH
Experimental: The hygroscopicity of the crystalline A of hydrochloride, crystalline A of malate and crystalline B of adipate was evaluated by a Dynamic Vapour Sorption (DVS) instrument. Crystalline form […] starts with ambient humidity (˜60% RH), and crystalline form B starts with 0% relative humidity (0% RH). The test collected mass change percentage of the sample under constant temperature conditions of 25° C., with changes in humidity (60% RH-95% RH-0% RH-95% RH or 0% RH-95% RH-0% RH). The test results are shown in FIGS. 103, 104 and 105 respectively.

[5] = Solid stability evaluation (XRPD and HPLC) at 25° C./60% RH and 40° C./75% RH; type: physicochemical; settings: for Crystalline form change: XRPD
[6] = HPLC impurities of solid stability samples; type: physicochemical

Sequence of Recombinant human DPP1 enzyme (P53634 25-134): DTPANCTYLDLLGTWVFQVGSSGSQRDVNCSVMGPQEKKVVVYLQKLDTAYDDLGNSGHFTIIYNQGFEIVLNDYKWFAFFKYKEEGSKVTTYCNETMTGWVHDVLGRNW
Sequence of Recombinant human DPP1 enzyme (P53634 231-394): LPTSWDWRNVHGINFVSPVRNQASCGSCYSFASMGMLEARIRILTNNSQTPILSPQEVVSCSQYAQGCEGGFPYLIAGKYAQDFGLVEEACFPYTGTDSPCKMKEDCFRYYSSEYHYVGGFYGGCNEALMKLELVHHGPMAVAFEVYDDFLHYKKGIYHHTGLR
Sequence of Recombinant human DPP1 enzyme (P53634 395-463): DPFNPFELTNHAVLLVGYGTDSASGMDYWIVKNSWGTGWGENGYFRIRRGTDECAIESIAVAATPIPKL

Row | SMILES | water sorption [4] [%] | HPLC purity (Area %) ([5]; 25° C./60% RH, 1 week) | Purity/Starting purity (%) ([5]; 25° C./60% RH, 1 week) | Crystalline form change ([5]; 25° C./60% RH, 1 week) | HPLC purity (Area %) ([5]; 25° C./60% RH, 3 weeks) | Purity/Starting purity (%) ([5]; 25° C./60% RH, 3 weeks) | HPLC purity (Area %) ([5]; 40° C./75% RH, 1 week) | Purity/Starting purity (%) ([5]; 40° C./75% RH, 1 week) | Crystalline form change ([5]; 40° C./75% RH, 1 week) | HPLC purity (Area %) ([5]; 40° C./75% RH, 3 weeks) | Purity/Starting purity (%) ([5]; 40° C./75% RH, 3 weeks) | HPLC purity (Area %) ([5]; Starting) | HPLC peak at RRT 1.00 ([6]; RRT 1.00, 25° C./60% RH/1 W) | HPLC peak at RRT 1.00 ([6]; RRT 1.00, 25° C./60% RH/3 W) | HPLC peak at RRT 1.00 ([6]; RRT 1.00, 40° C./75% RH/1 W) | HPLC peak at RRT 1.00 ([6]; RRT 1.00, Starting) | HPLC impurity at RRT 1.12 ([6]; RRT 1.12, 25° C./60% RH/1 W) | HPLC impurity at RRT 1.12 ([6]; RRT 1.12, 25° C./60% RH/3 W) | HPLC impurity at RRT 1.12 ([6]; RRT 1.12, 40° C./75% RH/1 W) | HPLC impurity at RRT 1.12 ([6]; RRT 1.12, 40° C./75% RH/3 W) | other results
1 | Cn1c(=O)oc2ccc(-c3ccc(C[C@@H](C#N)NC(=O)[C@@H]4CNCCCO4)c(F)c3)cc21 [Compound I, (S)—N—((S)-1-cyano-2-(2-fluoro-4-(3-methyl-2-oxo-2,3-dihydrobenzo[d]oxazol-5-yl)phenyl)ethyl)-1,4-oxazepane-2-carboxamide] |  |  |  |  |  |  |  |  |  |  |  |  |  |  |  |  |  |  |  |  | inhibitory activity against DPP1 (conclusion in words) [1]: high inhibitory activity; F [2]: >100%; solubility at 1 h ([3]; simulated gastric fluid, SGF): > 5200 µg/mL; solubility at 2 h ([3]; simulated gastric fluid, SGF): > 5200 µg/mL; solubility at 4 h ([3]; simulated gastric fluid, SGF): > 5300 µg/mL; solubility at 24 h ([3]; simulated gastric fluid, SGF): > 5200 µg/mL; solubility at 1 h ([3]; FaSSIF): 370 µg/mL (≈ 844 µM); solubility at 2 h ([3]; FaSSIF): 360 µg/mL (≈ 821 µM); solubility at 4 h ([3]; FaSSIF): 350 µg/mL (≈ 798 µM); solubility at 24 h ([3]; FaSSIF): 290 µg/mL (≈ 661 µM); solubility at 1 h ([3]; FeSSIF): 2700 µg/mL (≈ 6160 µM); solubility at 2 h ([3]; FeSSIF): 2700 µg/mL (≈ 6160 µM); solubility at 4 h ([3]; FeSSIF): 2700 µg/mL (≈ 6160 µM); solubility at 24 h ([3]; FeSSIF): 2300 µg/mL (≈ 5250 µM); solubility at 1 h ([3]; water, H2O): 35 µg/mL (≈ 79.8 µM); solubility at 2 h ([3]; water, H2O): 30 µg/mL (≈ 68.4 µM); solubility at 4 h ([3]; water, H2O): 16 µg/mL (≈ 36.5 µM); solubility at 24 h ([3]; water, H2O): 16 µg/mL (≈ 36.5 µM)
2 | Cn1c(=O)oc2ccc(-c3ccc(C[C@@H](C#N)NC(=O)[C@@H]4CNCCCO4)cc3)cc21 [INS1007, reference compound] |  |  |  |  |  |  |  |  |  |  |  |  |  |  |  |  |  |  |  |  | F [2]: 88.1%
3 | Cl.Cn1c(=O)oc2ccc(-c3ccc(C[C@@H](C#N)NC(=O)[C@@H]4CNCCCO4)c(F)c3)cc21 [crystalline A of hydrochloride] | 0.47 | 99.60 | 100.0 | No | 99.67 | 100.0 | 99.59 | 100.0 | No | 99.17 | 99.5 | 99.63 | 99.60 | 99.67 | 99.59 | 99.63 | 0.14 | 0.13 | 0.12 | 0.18 | HPLC impurity at RRT 1.06 ([6]; RRT 1.06, 25° C./60% RH/1 W): 0.26; HPLC impurity at RRT 1.06 ([6]; RRT 1.06, 25° C./60% RH/3 W): 0.21; HPLC impurity at RRT 1.06 ([6]; RRT 1.06, 40° C./75% RH/1 W): 0.20; HPLC impurity at RRT 1.06 ([6]; RRT 1.06, Starting): 0.21; HPLC impurity at RRT 1.12 ([6]; RRT 1.12, Starting): 0.16; HPLC impurity at RRT 1.16 ([6]; RRT 1.16, 40° C./75% RH/3 W): 0.06; HPLC impurity at RRT 1.28 ([6]; RRT 1.28, 40° C./75% RH/1 W): 0.09; HPLC impurity at RRT 1.28 ([6]; RRT 1.28, 40° C./75% RH/3 W): 0.17
4 | Cn1c(=O)oc2ccc(-c3ccc(C[C@@H](C#N)NC(=O)[C@@H]4CNCCCO4)c(F)c3)cc21.O=C(O)CC(O)C(=O)O [crystalline A of malate] | 1.27 | 99.89 | 100.0 | No | 99.91 | 100.0 | 99.92 | 100.0 | No | 99.92 | 100.0 | 99.90 | 99.89 | 99.91 | 99.92 | 99.90 | 0.11 | 0.09 | 0.08 | 0.08 | HPLC peak at RRT 1.00 ([6]; RRT 1.00, 40° C./75% RH/3 W): 99.92; HPLC impurity at RRT 1.12 ([6]; RRT 1.12, Starting): 0.10
5 | Cn1c(=O)oc2ccc(-c3ccc(C[C@@H](C#N)NC(=O)[C@@H]4CNCCCO4)c(F)c3)cc21.O=C(O)CCCCC(=O)O [crystalline B of adipate] | 0.24 | 99.71 | 100.0 | No | 99.72 | 100.0 | 99.74 | 100.0 | No | 99.72 | 100.0 | 99.74 | 99.71 | 99.72 | 99.74 | 99.74 | 0.29 | 0.28 | 0.26 | 0.28 | HPLC peak at RRT 1.00 ([6]; RRT 1.00, 40° C./75% RH/3 W): 99.72; HPLC impurity at RRT 1.12 ([6]; RRT 1.12, Starting): 0.26
